Measurements reported in patent US10344065B2, “Method for treating Alzheimer's disease and method for downregulating protein aggregation in brain” (National Cheng Kung University, priority 2017, dated 2019).
Residues, ends and D or L forms follow the SMILES beside them. *: point of attachment. Cbz = O=C(OCc1ccccc1)*

Key:
MCF7 cell lysates = assay: Zfration and degradation of proteins in MCF7 cell lysates; type: biochemical, human
Protocol: (§1) Aliquots of Zfra-deficient breast MCF7 cell lysates (100 μg) were incubated with Zfra (100 μM) for various durations in the presence or absence of proteasome inhibitor MG-132 (50 μM). Zfra formed complexes with cytosolic proteins (or zfrated; see arrows), and disappeared with time even in the presence of MG-132. (B and C) Zfra-negative prostate DU145 cells were exposed to UV (160-720 mJ/cm^2), and aliquots of whole cell lysates (100 μg) were incubated with Zfra peptide (100 μM) for various durations (in PBS) at 37° C., in the presence of a cocktail of protease inhibitors (1:10 dilution). Zfrated proteins (70, 72, 200 kDa and minor band ladders) and exogenous Zfra peptide were degraded with time (>99% in 120 minutes; reducing SDS-PAGE). Synthetic Zfra was in PBS at the first lane at the left, and in Milli-Q water at the last lane at the right. Zfra-free control lysates had only less than 10% degradation of total proteins after incubation for 120 minutes, in the presence of protease inhibitors (data not shown). In the diagram of FIG. 6C, at each time points, the left bar is cell lysates, and the right bar is Zfra peptide. (D) L929 cell lysates (100 μg) were incubated with Zfra peptide (100 μM) for 30 minutes at 37° C. (in PBS). A 30-kDa protein was zfrated in 30 minutes, and 22- and 80-kDa protein was zfrated rapidly and then degraded in 30 minutes (reducing SDS-PAGE). *A nonspecific immunoreactive or a zfrated protein in L929 cells. (E) Zfra peptide (100 μM) bound recombinant His-Tau (2 μg protein) in PBS for 24 hours at room temperature, and the resulting complex resisted dissociation by reducing SDS-PAGE. Abbreviation: Zfra, zinc finger-like protein that regulates apoptosis.
To continue to investigate how Zfra reduces protein aggregation in vivo, we examined whether Zfra interacts with cytosolic proteins and accelerates protein degradation. Zfra peptide at high concentrations may undergo self-polymerization especially in PBS. […] Zfra-deficient human breast MCF7 cells were used. […]

L929 cell lysates = assay: Zfration and degradation of proteins in L929 cell lysates; type: biochemical, murine
Protocol: as §1, with “A 30-kDa protein was zfrated in 30 minutes, and 22- and 80-kDa protein was zfrated rapidly and then degraded in 30 minutes (reducing SDS-PAGE). *A nonspecific immunoreactive or a zfrated protein in L929 cells. (E) Zfra peptide (100 μM) bound recombinant His-Tau (2 μg protein) in PBS for 24 hours at room temperature, and the resulting complex resisted dissociation by reducing SDS-PAGE. Abbreviation: Zfra, zinc finger-like protein that regulates apoptosis.” left out

[1] = test system: pyramidal neurons in the hippocampi; assay: Melanoma B16F10-induced neurodegeneration in nude mice; type: in vivo, mouse; settings: nude mice, B16F10; data not shown
Protocol: FIG. 4 includes photos showing that Zfra suppresses melanoma B16F10-mediated neurodegeneration in the hippocampus. Nude mice were preinjected with 100 μL, of sterile Milli-Q water or Zfra4-10 (1 mM in sterile water) in 3 consecutive weeks. After treatment for a week, these mice were inoculated with melanoma B16F10 cells on both flanks (2×10^5 cells in 100-μL, PBS). Mice were sacrificed when the tumor sizes grew up to 2000-3000 mm^3 in about a month. (A) Zfra blocked neurodegeneration in the hippocampus (top panel) and prevented the formation of TPC6AΔ plaques in the cortex (bottom panel), which negatively correlates with pS14-WWOX expression. Note the presence of condensed apoptotic nuclei in the hippocampal neurons in the control mice, (B) Metastasis of B16F10 cells to the lung was blocked in Zfra-treated mice. Compared to controls, Zfra suppressed p-S14WWOX expression in the lung by ˜72% suppression (three sections). […] (C and D) The non-spatial learning and memory were determined by novel object recognition task for both 3×Tg and Wwox+/− mice. […]
Six- to eight-week-old male nude (BALB/cAnN.Cg-Foxn1^nu/CrlNarl) mice (National Laboratory Animal Center, Taiwan) were used. […] Tumor volumes were measured daily and calculated using the equation, D×(d)^2/2, where D and d are the major and minor diameters, respectively. […] Z-cell distribution in organs was determined under fluorescence microscopy.

[2] = Self-polymerization of Zfra peptide in PBS (reducing SDS-PAGE); type: physicochemical; settings: >1 mM in PBS; molecular sizes from 3.5 kDa up to 78 and 80 kDa
Aβ42 = target: T1, Aβ42 (Homo sapiens, UniProt P05067); assay: Aβ42 aggregation in vitro (SDS-PAGE); type: biochemical; settings: 100 μM each peptide, room temperature, 24 hours or less
T1 construct: purchased AnaSpec
T1 sequence (P05067 672-713): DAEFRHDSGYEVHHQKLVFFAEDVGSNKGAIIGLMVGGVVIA
Source text: FIG. 5 includes photos and diagrams showing that Zfra suppresses polymerization or aggregation of serine-containing TPC6AΔ and other peptides in PBS. […] The mixtures were subjected to nonreducing sodium dodecyl sulfate polyacrylamide gel electrophoresis (SDS-PAGE). (A) Full-length Zfra or red-fluorescent TMR-Zfra blocked aggregation of Aβ42 (lanes 3, 5, and 7). […] The membrane was stained with antibody against Aβ. (B) Zfra4-10 and one of the TPC6AΔ peptides were resuspended in Milli-Q water or PBS and incubated for 24 hours at room temperature. Zfra4-10 suppressed the polymerization of serine-containing peptides. Reduction in intensity=[1−(Z.P)/(Z+P)]×100%, where Z=Zfra4-10, P=an indicated peptide, and Z.P=peptide mixture. […] Zfra4-10 suppressed polymerization of these peptides in PBS.
Zfra and serine-containing peptides were synthesized by Genemed Synthesis (San Antonio, Tex., USA), (1) Zfra1-31, […] (SEQ ID NO: 2); (2) Zfra4-10, RRSSSCK (SEQ ID NO: 1); (3) WWOX7-21, AGLDDTDSEDELPPG (SEQ ID NO: 3); (4) pS14-WWOX7-21, AGLDDTDpSEDELPPG (SEQ ID NO: 4); (5). […]

| Compound | effect of proteasome inhibitor on degradation of zfrated proteins (MCF7 cell lysates; MCF7 lysates with Zfra, MG-132 50 μM) | zfration and degradation of 80 and 22 kDa proteins (L929 cell lysates; 37° C., PBS) | zfration of 30-kDa protein (L929 cell lysates; 30 minutes) | results in similar experiments (melanoma-induced neurodegeneration, metastasis, pS14-WWOX) [1] | degradation of zfrated proteins (MCF7 cell lysates; MCF7 lysates, with or without MG-132) | binding of cellular proteins (zfration) (MCF7 cell lysates; MCF7 lysates, complexes resisted SDS and β-mercaptoethanol) | self-polymerization [2] | aggregation of Aβ42 (Aβ42) |
| --- | --- | --- | --- | --- | --- | --- | --- | --- |
| CC(C)C[C@@H](C=O)NC(=O)[C@H](CC(C)C)NC(=O)[C@H](CC(C)C)NC(=O)OCc1ccccc1 [MG-132, reference compound] (Cbz-Leu-Leu-Leu-aldehyde) | did not block but enhanced | – | – | – | – | – | – | – |
| MSSRRSSSCKYCEQDFRAHTQKNAAFPFLAN (MSSRRSSSCKYCEQDFRAHTQKNAATPFLAN; Synthesized pepetide) [Zfra1-31, full-length 31-amino-acid zinc finger-like protein that regulates apoptosis] | – | rapidly zfrated and then degraded in 30 minutes | became zfrated | Comparable results | degraded with time of incubation | Zfra-bound cellular proteins | underwent self-polymerization | blocked |
